Test results reported in EP1510220B1 (priority 1993, dated 1994).
Like-named read-outs stand apart in the source and are kept apart here.

How the values were obtained:
[1] = test system: B054 cells (baboon smooth muscle cells); experiment: cells; format: cell-based
[2] = test system: vascular smooth muscle cells; format: in vivo, pig; settings: 4 days post-trauma
[3] = test system: B054 cells (baboon smooth muscle cells); experiment: cells; format: cell-based; remark: listed apart in the source
[4] = test system: Balloon traumatized pig arteries; settings: in vivo
[5] = test system: Vascular smooth muscle cells
[6] = Proliferation of enzyme-dispersed (ED) human VSMC cultures; format: cell-based; settings: human, aortic vsmc ed cultures, cell counting, read-out: concentrations that caused cell death
Procedure: (§1) Human aortic VSMC cultures. Adult human VSMC were obtained from 6 transplant donors (either sex, age range from 3 to 54 years) using the enzyme dispersal or explant technique. In one case, the same donor (a person) was used to establish both an enzyme-dispersed (ED) and explant-derived (EX) cell culture. Prior to enzyme-dispersion or explanting treatment, human aortas were obtained within 18 h of death. The endothelium layer was removed with a scalpel blade and strips of smooth muscle cells (tunica media) were removed with forceps and chopped into small pieces (1 mm^3).
(§2) ED Cultures. The aortic pieces were washed once with serum-free Hanks Balanced Salt Solution, then enzyme-dispersed with collagenase and elastase, as described in Example 7. The cells were plated at an initial density of 1.5 x 10^5 cells/cm^2 and incubated in a humidified atmosphere at 37°C in 5% CO2 in air. The cells were subcultured every 6-7 days (at stationary phase) by releasing them with trypsin/EDTA and diluting them 1:1.5 in D-MEM + 10% FCS. Subcultured ED cells were cultured with D-MEM + 20% FCS 24 h after plating, and thereafter at 48 h intervals.
(§3) Cell counting, DNA synthesis assays and assays for total and active TGF-beta were performed as described in Example 7.

human ED cultures = experiment: as above; format: cell-based; settings: 96 h, cell counting
Procedure: as §1, §2, §3

[7] = test system: Vascular smooth muscle cells; experiment: DNA synthesis by [3H]-thymidine incorporation in rat vascular smooth muscle cells; format: cell-based; settings: between 12 and 24 hours after stimulation, control 17614 +/- 1714 cpm
Procedure: DNA synthesis was assayed by [^3H]-thymidine incorporation as described in Grainger et al., Biochem. J., 277:145-151, 1991. Vascular smooth muscle cells were subcultured, grown in DMEM + 10% FCS for 24 hours, made quiescent in serum-free DMEM for 48 hours and restimulated with 10% FCS at "0" hours. [^3H]-thymidine (5 microcuries/ml; available from Amersham International) was added 12 hours after restimulation and the cells were harvested after 24 hours. DNA synthesis by adventitial fibroblasts was determined similarly, except that the cells were made quiescent in serum-free DMEM for 24 hours.

[8] = Proliferation of explant-derived (EX) human VSMC cultures; format: cell-based; settings: human, aortic vsmc ex cultures
Procedure: as §1
(§4) EX Cultures. The aortic pieces were washed once with D-MEM + 10% FCS, resuspended in a small volume of fresh D-MEM + 10% FCS, and transferred to culture flasks or Petri dishes. The pieces were allowed to sediment onto the plastic and were evenly distributed (≈ 4 pieces/cm^2). Cells started to grow out from the explants after 3-7 d in culture. The aortic pieces were removed during the third week in culture, and the cells adhering to the plastic were allowed to grow to confluence for a further week. The cells were then subcultured every 4-5 days by releasing them with trypsin/EDTA and diluting them 1:2 in D-MEM + 10% FCS. Subcultured cells were incubated with fresh D-MEM + 20% FCS as described for ED cultures.
as §3

human EX cultures = experiment: as above; format: cell-based; settings: Homo sapiens, VSMC
Procedure: as §1, §4, §3

**Q.** What does the source list for cytochalasin B?
**A.** minimum effective dose (MED), DNA assay ([1]; 5 minute exposure): 10 µg/mL; minimum effective dose (MED), DNA synthesis assay ([1]; 24 hour exposure): 0.1 µg/mL; BRDU labeling grade [2]: 4 (4 = > 10/HPF); minimum effective dose (MED), protein synthesis assay ([3]; 5 minute exposure): 10 µg/mL; minimum effective dose (MED), protein synthesis assay ([3]; 24 hour exposure): 1.0 µg/mL; lumen area in the test region compared to the normal control segment of the same artery [4]: approximately two times; luminal area compared to arteries treated with other test agents or controls [4]: larger luminal area; toxicity to the vascular smooth muscle cells [4]: appeared to be toxic; morphological cytotoxicity grade ([5]; 0.01ug, 24 hrs + 24 hrs): 0; morphological cytotoxicity grade ([5]; 0.01ug, 24 hrs + 48 hrs): 0; morphological cytotoxicity grade ([5]; 0.01ug, 24 hrs + 72 hrs): 0; morphological cytotoxicity grade ([5]; 0.01ug, 24 hrs + 96 hrs): 0; morphological cytotoxicity grade ([5]; 0.01ug, 24 hrs + 120 hrs): 0; morphological cytotoxicity grade ([5]; 0.01ug, Continuous 6 hrs): 0; morphological cytotoxicity grade ([5]; 0.01ug, Continuous 24 hrs (r11, 24 hr exposure series)): 0; morphological cytotoxicity grade ([5]; 0.01ug, Continuous 24 hrs (r17, long term continuous series)): 0; morphological cytotoxicity grade ([5]; 0.01ug, Continuous 48 hrs): 0; morphological cytotoxicity grade ([5]; 0.01ug, Continuous 72 hrs): 0; morphological cytotoxicity grade ([5]; 0.01ug, Continuous 96 hrs): 0; morphological cytotoxicity grade ([5]; 0.01ug, Continuous 120 hrs): 0; morphological cytotoxicity grade ([5]; 0.01ug, Continuous 168 hrs): 0; morphological cytotoxicity grade ([5]; 0.01ug, Continuous 216 hrs): 0; morphological cytotoxicity grade ([5]; 0.01ug, Continuous 264 hrs): 0; morphological cytotoxicity grade ([5]; 0.1 ug, 5 min + 2 hrs): 0; morphological cytotoxicity grade ([5]; 0.1 ug, 5 min + 6 hrs): 0; morphological cytotoxicity grade ([5]; 0.1 ug, 5 min + 24 hrs): 0; morphological cytotoxicity grade ([5]; 0.1 ug, 5 min + 48 hrs): 0; morphological cytotoxicity grade ([5]; 0.1 ug, 5 min + 72 hrs): 0; morphological cytotoxicity grade ([5]; 0.1 ug, 5 min + 96 hrs): 0; morphological cytotoxicity grade ([5]; 0.1 ug, 5 min + 120 hrs): 0; morphological cytotoxicity grade ([5]; 0.1 ug, 24 hrs + 24 hrs): 0.5; morphological cytotoxicity grade ([5]; 0.1 ug, 24 hrs + 48 hrs): 1; morphological cytotoxicity grade ([5]; 0.1 ug, 24 hrs + 72 hrs): 0.5; morphological cytotoxicity grade ([5]; 0.1 ug, 24 hrs + 96 hrs): 0; morphological cytotoxicity grade ([5]; 0.1 ug, 24 hrs + 120 hrs): 0; morphological cytotoxicity grade ([5]; 0.1 ug, Continuous 6 hrs): 0; morphological cytotoxicity grade ([5]; 0.1 ug, Continuous 24 hrs (r11, 24 hr exposure series)): 1; morphological cytotoxicity grade ([5]; 0.1 ug, Continuous 24 hrs (r17, long term continuous series)): 0; morphological cytotoxicity grade ([5]; 0.1 ug, Continuous 48 hrs): 1; morphological cytotoxicity grade ([5]; 0.1 ug, Continuous 72 hrs): 1; morphological cytotoxicity grade ([5]; 0.1 ug, Continuous 96 hrs): 2; morphological cytotoxicity grade ([5]; 0.1 ug, Continuous 120 hrs): 1; morphological cytotoxicity grade ([5]; 0.1 ug, Continuous 168 hrs): 1; morphological cytotoxicity grade ([5]; 0.1 ug, Continuous 216 hrs): 1; morphological cytotoxicity grade ([5]; 0.1 ug, Continuous 264 hrs): 1; morphological cytotoxicity grade ([5]; 1 ug, 5 min + 2 hrs): 0; morphological cytotoxicity grade ([5]; 1 ug, 5 min + 6 hrs): 1; morphological cytotoxicity grade ([5]; 1 ug, 5 min + 24 hrs): 0.5; morphological cytotoxicity grade ([5]; 1 ug, 5 min + 48 hrs): 1; morphological cytotoxicity grade ([5]; 1 ug, 5 min + 72 hrs): 1; morphological cytotoxicity grade ([5]; 1 ug, 5 min + 96 hrs): 1; morphological cytotoxicity grade ([5]; 1 ug, 5 min + 120 hrs): 1; morphological cytotoxicity grade ([5]; 1 ug, 24 hrs + 24 hrs): 3; morphological cytotoxicity grade ([5]; 1 ug, 24 hrs + 48 hrs): 4; morphological cytotoxicity grade ([5]; 1 ug, 24 hrs + 72 hrs): 4; morphological cytotoxicity grade ([5]; 1 ug, 24 hrs + 96 hrs): 4; morphological cytotoxicity grade ([5]; 1 ug, 24 hrs + 120 hrs): 4; morphological cytotoxicity grade ([5]; 1 ug, Continuous 6 hrs): 3; morphological cytotoxicity grade ([5]; 1 ug, Continuous 24 hrs (r11, 24 hr exposure series)): 3; morphological cytotoxicity grade ([5]; 1 ug, Continuous 24 hrs (r17, long term continuous series)): 3; morphological cytotoxicity grade ([5]; 1 ug, Continuous 48 hrs): 3; morphological cytotoxicity grade ([5]; 1 ug, Continuous 72 hrs): 3; morphological cytotoxicity grade ([5]; 1 ug, Continuous 96 hrs): 3; morphological cytotoxicity grade ([5]; 1 ug, Continuous 120 hrs): 3; morphological cytotoxicity grade ([5]; 1 ug, Continuous 168 hrs): 4; morphological cytotoxicity grade ([5]; 1 ug, Continuous 216 hrs): 4; morphological cytotoxicity grade ([5]; 1 ug, Continuous 264 hrs): 4; cytotoxicity grade ([5]; 1 µg/ml, anti-migration/contraction effective dose, grade 1 = minimal): 1; morphological cytotoxicity grade ([5]; 10 ug, 5 min + 2 hrs): 0.5; morphological cytotoxicity grade ([5]; 10 ug, 5 min + 6 hrs): 4; morphological cytotoxicity grade ([5]; 10 ug, 5 min + 24 hrs): 4; morphological cytotoxicity grade ([5]; 10 ug, 5 min + 48 hrs): 4; morphological cytotoxicity grade ([5]; 10 ug, 5 min + 72 hrs): 4.5; morphological cytotoxicity grade ([5]; 10 ug, 5 min + 96 hrs): 5; morphological cytotoxicity grade ([5]; 10 ug, 5 min + 120 hrs): 5

**Q.** Which results are given for `CC/C(=C(\c1ccccc1)c1ccc(OCCN(C)C)cc1)c1ccccc1` [tamoxifen, trans-2-[4-(1,2-diphenyl-1-butenyl)phenoxy]-N,N-dimethylethylamine]?
**A.** MCC at 96 h [6]: > 33 µM; concentrations that did not affect the rate of proliferation (human ED cultures): below 10 µM; DNA synthesis, [3H]-thymidine incorporation ([7]; 10 micromolar): 16898 +/- 3417 cpm; DNA synthesis, [3H]-thymidine incorporation ([7]; 50 micromolar): 18002 +/- 4167 cpm; MCC [8]: > 33 µM; inhibition at 0.5 µM (human EX cultures; 0.5 µM, 96 h in D-MEM + 20% FCS, vs ethanol vehicle, read-out: inhibition of the increase in cell number): 27 ± 2%; inhibition at 5 µM (human EX cultures; 5 µM, read-out: inhibition of the increase in cell number): 33 ± 8%; IC50 (human EX cultures; read-out: half-maximal inhibitory dose): 30 to 100 nM
